{"source": "patent US20060270666A1", "about": "“Quinoxaline derivatives as neutrophil elastase inhibitors and their use” (priority 2003, published 2006)"}
{"biological_target": "T1, Human Neutrophil Elastase (HNE) (Homo sapiens, UniProt P08246)", "T1 construct": "Human Neutrophil Elastase (HNE) purified from serum (Calbiochem art. 324681); purchased Calbiochem 324681; host or cells: natural human material (serum)", "T1 sequence (P08246 30-267)": "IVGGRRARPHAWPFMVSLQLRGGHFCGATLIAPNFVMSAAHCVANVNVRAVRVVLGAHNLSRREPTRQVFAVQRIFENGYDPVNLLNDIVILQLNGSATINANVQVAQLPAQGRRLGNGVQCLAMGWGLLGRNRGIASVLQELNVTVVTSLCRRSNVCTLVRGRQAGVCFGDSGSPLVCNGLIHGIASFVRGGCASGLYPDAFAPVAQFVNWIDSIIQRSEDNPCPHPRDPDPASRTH", "assay": "Human Neutrophil Elastase Quenched-FRET Assay", "type": "biochemical", "details": "HNE purified from serum; substrate MeOSuc-AAPV-AMC; 15 min pre-incubation, 30 min incubation at room temperature; read-out: Inhibition of Human Neutrophil Elastase IC50", "method": "Human Neutrophil Elastase Quenched-FRET Assay\nThe assay uses Human Neutrophil Elastase (HNE) purified from serum (Calbiochem art. 324681; Ref. Baugh, R. J. et al., 1976, Biochemistry. 15, 836-841). HNE was stored in 50 mM NaOAc, 200 mM NaCl, pH 5.5 with added 30% glycerol at −20° C. The protease substrate used was Elastase Substrate V Fluorogenic, MeOSuc-AAPV-AMC (Calbiochem art. 324740; Ref. Castillo, M. J. et al., 1979, Anal. Biochem. 99, 53-64). The substrate was stored in DMSO at −20° C. The assay additions were as follows: Test compounds and controls were added to black 96-well flat-bottom plates (Greiner 655076), 1 μL in 100% DMSO, followed by 30 μL HNE in assay buffer with 0.01% TritonX-100. The assay buffer constitution was: 100 mM Tris (pH 7.5) and 500 mM NaCl. The enzyme and the compounds were incubated at room temperature for 15 minutes. Then 30 μl substrate in assay buffer was added. The assay was stopped after 30 minutes incubation at room temperature by adding 60 μl stop solution (140 mM acetic acid, 200 mM sodium monochloroacetate, 60 mM sodium acetate, pH 4.3). Fluorescence was measured on a Wallac 1420 Victor 2 instrument at settings: Excitation 380 nm, Emission 460 nm. IC50 values were determined using Xlfit curve fitting using model 205.", "units": {"IC50": "nM"}}
{"smiles": "Cc1ccc(CNC(=O)c2nc3ccccc3n(-c3cccc(C(F)(F)F)c3)c2=O)cc1", "note": "[Example 2.12, N-(4-Methylbenzyl)-3-oxo-4-[3-(trifluoromethyl)phenyl]-3,4-dihydroquinoxaline-2-carboxamide]", "IC50": 226}
{"smiles": "N#CC1CCC(CNC(=O)c2nc3ccccc3n(-c3cccc(C(F)(F)F)c3)c2=O)CC1", "note": "(stereo not drawn) [Example 2.10, N-[(4-Cyanocyclohexyl)methyl]-3-oxo-4-[3-(trifluoromethyl)phenyl]-3,4-dihydroquinoxaline-2-carboxamide]", "IC50": 248}
{"smiles": "O=C(NCCc1ccc(F)cc1)c1nc2ccccc2n(-c2cccc(C(F)(F)F)c2)c1=O", "note": "[Example 2.20, N-[2-(4-Fluorophenyl)ethyl]-3-oxo-4-[3-(trifluoromethyl)phenyl]-3,4-dihydroquinoxaline-2-carboxamide]", "IC50": 573}
